Assay results from US11661400B2, “NADPH oxidase inhibitors, pharmaceutical composition comprising the same, and application thereof” (TAIWANJ PHARMACEUTICALS CO., LTD., priority 2018, dated 2023).

Assays:
[1] = biological target: T1, NOX4 (Homo sapiens, UniProt Q9NPH5); assay: NOX4 HEK293 overexpression cell-based assay (Amplex Red H2O2); conditions: HEK293 cells stably overexpressing NOX4, DMSO = 0, GKT137831 = 100; for inhibition at 0.1 µM: HEK293, 100 nM; for inhibition at 1 µM: HEK293, 1000 nM
T1 construct: expressed in transfected cells
T1 sequence (Q9NPH5 1-578): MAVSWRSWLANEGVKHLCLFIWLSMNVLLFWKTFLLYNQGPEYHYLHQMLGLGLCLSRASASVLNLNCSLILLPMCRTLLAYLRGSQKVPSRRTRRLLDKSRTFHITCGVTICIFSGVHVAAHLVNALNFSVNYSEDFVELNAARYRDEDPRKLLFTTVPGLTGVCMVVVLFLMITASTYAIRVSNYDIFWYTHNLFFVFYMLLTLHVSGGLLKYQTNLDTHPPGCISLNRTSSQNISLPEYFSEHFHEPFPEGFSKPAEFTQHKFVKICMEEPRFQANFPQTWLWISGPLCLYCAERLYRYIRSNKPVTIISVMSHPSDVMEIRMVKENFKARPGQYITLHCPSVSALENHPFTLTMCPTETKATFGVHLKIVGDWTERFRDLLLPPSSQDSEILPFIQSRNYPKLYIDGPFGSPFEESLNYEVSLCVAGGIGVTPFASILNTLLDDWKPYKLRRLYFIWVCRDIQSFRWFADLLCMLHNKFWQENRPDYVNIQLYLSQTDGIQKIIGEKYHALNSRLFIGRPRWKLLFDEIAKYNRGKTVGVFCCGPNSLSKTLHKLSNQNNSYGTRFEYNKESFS
T1 sequence (P13498 2-195 partner limits assumed): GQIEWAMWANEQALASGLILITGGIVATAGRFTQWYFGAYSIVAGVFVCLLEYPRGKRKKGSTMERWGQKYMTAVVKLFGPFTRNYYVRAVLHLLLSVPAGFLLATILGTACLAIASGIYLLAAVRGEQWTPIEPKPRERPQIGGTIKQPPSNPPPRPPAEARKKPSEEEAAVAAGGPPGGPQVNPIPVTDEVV
Outline: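 HEK293 cells stably overexpressing NOX4 (3×10^4) preincubated 30 min at 37° C with compound in KRPG buffer, then mixed with Amplex Red reagent solution (50 μM Amplex Red, 0.1 units/mL HRP) for 90 min at 37° C in the dark. Supernatant fluorescence read at 530/590 nm; DMSO set to 0 and GKT137831 to 100.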

[2] = biological target: T2, NOX1 (Homo sapiens, UniProt Q9Y5S8); assay: NOX1 HT29 cell-based assay (luminol/HRP luminescence); conditions: HT29 cells, DMSO = 0%, GKT137831 = 100%; for inhibition at 0.1 µM / inhibition at 1 µM: HT-29
T2 construct: endogenous in cells; host or cells: HT29
T2 sequence (Q9Y5S8 1-564): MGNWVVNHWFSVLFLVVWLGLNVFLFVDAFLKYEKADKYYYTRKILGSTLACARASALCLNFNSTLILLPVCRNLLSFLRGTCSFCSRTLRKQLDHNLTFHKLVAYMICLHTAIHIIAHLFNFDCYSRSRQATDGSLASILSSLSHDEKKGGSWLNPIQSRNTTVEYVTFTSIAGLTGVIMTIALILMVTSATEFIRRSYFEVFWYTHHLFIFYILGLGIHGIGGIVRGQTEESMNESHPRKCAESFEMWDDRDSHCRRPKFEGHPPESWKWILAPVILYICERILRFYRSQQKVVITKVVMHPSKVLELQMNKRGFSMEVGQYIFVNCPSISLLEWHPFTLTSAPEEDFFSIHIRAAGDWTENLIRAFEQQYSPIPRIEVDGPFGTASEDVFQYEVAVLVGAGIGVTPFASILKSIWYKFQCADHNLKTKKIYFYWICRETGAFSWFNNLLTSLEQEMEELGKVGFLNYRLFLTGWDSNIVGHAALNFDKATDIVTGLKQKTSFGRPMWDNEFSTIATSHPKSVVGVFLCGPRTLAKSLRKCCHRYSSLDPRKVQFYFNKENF
T2 sequence (P13498 2-195 partner limits assumed): T1 sequence (P13498 2-195 partner limits assumed)
Outline: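 HT29 cells (1-2×10^5 per well) pretreated 30-60 min at 37 °C with compound at 100 nM and 1000 nM final, in duplicate, 0.1% DMSO. ROS read as luminol (100 μM)/HRP (0.4 U) luminescence. Activity normalised to DMSO (0%) and GKT137831 (100%).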

[3] = biological target: T3, NOX2 (Homo sapiens, UniProt P04839); assay: NOX2 HL60 cell-based assay (PMA oxidative burst, L012 chemiluminescence); conditions: DMSO-differentiated HL-60 cells, PMA-stimulated; for inhibition at 0.1 µM: HL-60, 100 nM; for inhibition at 1 µM: HL-60, 1000 nM
T3 construct: HL-60 cells, rich in NOX2 expression; endogenous in cells; host or cells: DMSO-differentiated HL-60
T3 sequence (P04839 2-570 limits assumed): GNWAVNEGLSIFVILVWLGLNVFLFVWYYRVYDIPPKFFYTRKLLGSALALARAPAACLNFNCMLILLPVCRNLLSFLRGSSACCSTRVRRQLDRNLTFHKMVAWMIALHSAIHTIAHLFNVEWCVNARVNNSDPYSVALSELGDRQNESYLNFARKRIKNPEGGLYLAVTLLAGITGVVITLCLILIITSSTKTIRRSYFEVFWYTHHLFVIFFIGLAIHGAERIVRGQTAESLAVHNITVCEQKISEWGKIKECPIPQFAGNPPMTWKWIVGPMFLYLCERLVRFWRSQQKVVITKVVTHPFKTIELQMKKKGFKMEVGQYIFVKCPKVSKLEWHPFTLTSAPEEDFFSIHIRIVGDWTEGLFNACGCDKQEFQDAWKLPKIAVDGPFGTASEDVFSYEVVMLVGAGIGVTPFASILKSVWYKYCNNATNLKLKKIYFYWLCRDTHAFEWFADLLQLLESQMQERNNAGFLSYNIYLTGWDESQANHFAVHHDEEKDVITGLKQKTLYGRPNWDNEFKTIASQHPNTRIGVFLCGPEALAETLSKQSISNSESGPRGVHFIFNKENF
T3 sequence (P13498 2-195 partner limits assumed): T1 sequence (P13498 2-195 partner limits assumed)
Outline: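 DMSO-differentiated HL-60 cells (2.5×10^5/well) with 100 μM L012 preincubated with compound 30-60 min at 37 °C in the dark. Oxidative burst triggered by 10 ng/mL PMA; superoxide chemiluminescence read every 5 min for 60 min.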

SMILES	inhibition at 0.1 µM [1]	inhibition at 1 µM [1]	inhibition at 0.1 µM ([2]; 100 nM)	inhibition at 1 µM ([2]; 1000 nM)	inhibition at 0.1 µM [3]	inhibition at 1 µM [3]	% Inhibition NOX1 ([2]; 100 nM)	% Inhibition NOX2 ([3]; 100 nM)	% Inhibition NOX4 ([1]; 1000 nM)	% Inhibition NOX4 ([1]; 100 nM)	% Inhibition NOX1 ([2]; 1000 nM)	% Inhibition NOX2 ([3]; 100 nM, 0.1 µM)	% Inhibition NOX2 ([3]; 1000 nM, 1 µM)	% Inhibition NOX2 ([3]; 1000 nM)	% Inhibition NOX2 ([3]; 100 nM, acetate, 0.1 µM)	% Inhibition NOX2 ([3]; 1000 nM, acetate, 1 µM)
COc1cc2c(cc1OC)C(=O)NCC(c1ccccc1Cl)=N2 [Compound 35, 2-(2-chlorophenyl)-7,8-dimethoxy-3,4-dihydro-5H-benzo[e][1,4] diazepin-5-one]	≤ 19%	≤ 19%	≤ 19%	≤ 19%	≤ 19%	≤ 19%										
COc1cc2[nH]c(-c3ccccc3Cl)c(N)c(=O)c2cc1OC [Compound 36, 3-amino-2-(2-chlorophenyl)-6,7-dimethoxyquinolin-4(1H)-one]	≤ 19%	50 to 79%		≥ 80%		≥ 80%	C (the percent of inhibition of NOX by the compounds ranges from 2000 to 49%)	C (the percent of inhibition of NOX by the compounds ranges from 2000 to 49%)								
COc1ccc(-c2c(O)c(=O)c3ccccc3n2C)cc1 [Compound 39]	≤ 19%	50 to 79%	≤ 19%	≥ 80%	≤ 19%	≤ 19%										
COc1cc2[nH]c(-c3ccccc3C(F)(F)F)c(O)c(=O)c2cc1OC [Compound 41, 3-hydroxy-6,7-dimethoxy-2-(2-(trifluoromethyl)phenyl) quinolin-4(1H)-one]							A (the percent of inhibition of NOX by the compounds is larger than or equals to 80%)		B (the percent of inhibition of NOX by the compounds ranges from 50% o to 79% o)	B (the percent of inhibition of NOX by the compounds ranges from 50% o to 79% o)	A (the percent of inhibition of NOX by the compounds is larger than or equals to 80%)	C (the percent of inhibition of NOX by the compounds ranges from 2000 to 49%)	A (the percent of inhibition of NOX by the compounds is larger than or equals to 80%)			
COc1cc2[nH]c(-c3ccccc3C(F)(F)F)c(O)c(=O)c2cc1OC [Compound 43, 3-hydroxy-6,7-dimethoxy-2-(2-(trifluoromethyl)phenyl)quinolin-4(1H)-one acetate]							A (the percent of inhibition of NOX by the compounds is larger than or equals to 80%)		B (the percent of inhibition of NOX by the compounds ranges from 50% o to 79% o)	B (the percent of inhibition of NOX by the compounds ranges from 50% o to 79% o)	A (the percent of inhibition of NOX by the compounds is larger than or equals to 80%)				B (the percent of inhibition of NOX by the compounds ranges from 50% o to 79% o)	A (the percent of inhibition of NOX by the compounds is larger than or equals to 80%)

Further lines, with some results ahead:

inhibition at 0.1 µM [1]	inhibition at 1 µM [1]	inhibition at 0.1 µM ([2]; 100 nM)	inhibition at 1 µM ([2]; 1000 nM)	inhibition at 0.1 µM [3]	inhibition at 1 µM [3]	SMILES	% Inhibition NOX1 ([2]; 100 nM)	% Inhibition NOX2 ([3]; 100 nM)	% Inhibition NOX4 ([1]; 1000 nM)	% Inhibition NOX4 ([1]; 100 nM)	% Inhibition NOX1 ([2]; 1000 nM)	% Inhibition NOX2 ([3]; 100 nM, 0.1 µM)	% Inhibition NOX2 ([3]; 1000 nM, 1 µM)	% Inhibition NOX2 ([3]; 1000 nM)	% Inhibition NOX2 ([3]; 100 nM, acetate, 0.1 µM)	% Inhibition NOX2 ([3]; 1000 nM, acetate, 1 µM)
≤ 19%	50 to 79%	≥ 80%	≥ 80%	≤ 19%	50 to 79%	COc1ccc(-c2[nH]c3cc(C(=O)O)ccc3c(=O)c2O)cc1 [Compound 33, 3-hydroxy-2-(4-methoxyphenyl)-4-oxo-1,4-dihydroquinoline-7-carboxylic acid]										
≤ 19%	≤ 19%	≤ 19%	≤ 19%	≤ 19%	≤ 19%	COc1ccc2[nH]c(C(=O)c3ccccc3OC)c(O)c(=O)c2c1 [Compound 34, 3-hydroxy-6-methoxy-2-(2-methoxybenzoyl) quinolin-4(1H)-one]										
≤ 19%	50 to 79%	≤ 19%	≥ 80%	50 to 79%	≥ 80%	COc1cc2[nH]c(-c3ccccc3)c(N)c(=O)c2cc1OC [Compound 37]										
≤ 19%		≤ 19%	≤ 19%	≤ 19%	≤ 19%	COc1cc2[nH]c(-c3ccccc3OC)c(N)c(=O)c2cc1OC [Compound 38]			C (the percent of inhibition of NOX by the compounds ranges from 2000 to 49%)							
≤ 19%	50 to 79%	≤ 19%	≥ 80%		50 to 79%	COc1ccccc1-c1[nH]c2cccc(-c3cccc(N(C)C)c3)c2c(=O)c1O [Compound 40]		C (the percent of inhibition of NOX by the compounds ranges from 2000 to 49%)								
				50 to 79%		COc1cc2[nH]c(-c3ccccc3C(F)(F)F)c(O)c(=O)c2cc1OC.Cl [Compound 42, 3-hydroxy-6,7-dimethoxy-2-(2-(trifluoromethyl)phenyl) quinolin-4(1H)-one hydrochloride]	A (the percent of inhibition of NOX by the compounds is larger than or equals to 80%)		B (the percent of inhibition of NOX by the compounds ranges from 50% o to 79% o)	B (the percent of inhibition of NOX by the compounds ranges from 50% o to 79% o)	A (the percent of inhibition of NOX by the compounds is larger than or equals to 80%)			A (the percent of inhibition of NOX by the compounds is larger than or equals to 80%)		
